Reference: patent US20250344695A1, “METHOD FOR PEST CONTROL” (priority 2024, published 2025)
Converted amounts (≈) assume the structure as drawn.

Key:
[1] = tested on: spotted wing drosophila, Drosophila suzukii; test: chlorobenzene fumigation in 1.9-liter jars, spotted wing drosophila flies; assay type: in vivo; conditions: 50 μl/l dose, 3 h at 21° C.
Method: (§1) Example 1: Chlorobenzene fumigations were conducted for control of six insect species and one mite species and they were: rice weevil, Sitophilus oryzae (Coleoptera: Curculionidae), confused flour beetle, Tribolium confusum (Coleoptera: Tenebrionidae), navel orangeworm, Amyelois transitella (Lepidoptera: Pyralidae), spotted wing drosophila, Drosophila suzukii (Diptera: Drosophilidae), western flower thrips, Frankliniella occidentalis (Thysanoptera: Thripidae), eastern subterranean termite, Reticulitermes flavipes (Blattodea: Rhinotermitidae), and ham mite, Tyrophagus putrescentiae (Schrank) (Acarina: Acaridae) (FIG. 2). Most fumigations were conducted in 1.9-liter glass jars. Confused flour beetle and rice weevil were fumigated in 1.9-liter jars and in 60-liter chambers with corn. Navel orangeworm was fumigated in 21.8 L chambers modified from pressure cookers.
Rice weevil and confused flour beetle were reared on pearled barley and wheat flour diet in jars, respectively. Western flower thrips were reared on lettuce plants in a greenhouse. Spotted wing drosophila was reared on an artificial diet in plastic cups. […]
A filter paper disc was clipped on the port underneath the lid with a metal clip. […] Insect mortality was then scored. Chlorobenzene doses were recorded as microliter liquid per liter of chamber space (ul/l). […]

[2] = tested on: western flower thrips, Frankliniella occidentalis; test: chlorobenzene fumigation in 1.9-liter jars, western flower thrips larvae and adults; assay type: in vivo; conditions: 24 h at 2° C.
Method: as §1, with “Navel orangeworm was fumigated in 21.8 L chambers modified from pressure cookers.” left out
(§2) A filter paper disc was clipped on the port underneath the lid with a metal clip. […] Insect mortality was then scored. Chlorobenzene doses were recorded as microliter liquid per liter of chamber space (ul/l).
Larvae and adults of western flower thrips were collected from infested lettuce plants in small vials each containing a piece of lettuce leaf (ca 20/vial) and stored in a refrigerator to cool them down. […] Vapor concentrations of chlorobenzene were measured during fumigation. After fumigation, thrips were kept at 2° C. overnight before mortality was scored. […]

[3] = at 20° C.; cited from earlier work
[4] = tested on: navel orangeworm, Amyelois transitella; test: 24 h chlorobenzene fumigation in 21.8-liter chambers, navel orangeworm eggs, larvae and pupae; assay type: in vivo; conditions: 24 h at 21° C.; for Larvae Mortality (%) Mean ± SE: 2nd, 4th, 6th instar pooled
Method: Procedure-Navel orangeworm eggs, larvae, and pupae were fumigated with chlorobenzene for 24 h at 21° C. in 21.8L chambers modified from pressure cookers to determine effects on mortality. Each chamber has a fan to circulate air. A small container with a piece of filter affixed in it was positioned next to the fan in each chamber as a reservoir for chlorobenzene (FIG. 4). Egg sheet with eggs oviposited during the last 3 days was harvested and cut into small pieces each with about 50 eggs. One piece of egg sheet was placed in a small 49 ml plastic vial and sealed with a screened lid. Larvae of three different ages (2nd, 4th, and 6th) were set up separately in 157 ml plastic vials each containing 3 g diet (10/vial). The vial was sealed with a screened lid. Three chlorobenzene does 50, 100, and 200 μl/l were tested in three chambers. They were achieved by adding 1, 2, and 4 ml of chlorobenzene in reservoirs in three fumigation chambers, respectively. Except for eggs that were only fumigated with chlorobenzene at 100 and 200 μl/l together with larvae and pupae, in each test, 5 vials of eggs, 9 vials of larvae (3 vials for each stage), and 3 vials of pupae were fumigated in one chamber. Controls were also set up for all life stages tested.
After chlorobenzene was added, the chamber was sealed and the fan was turned on to circulate air continuously for the 24 h duration of fumigation. Chlorobenzene detector tubes were used to measure chlorobenzene vapor concentrations 5-6 times between 2 h after start and before the end of fumigations. By the end of fumigation, all chlorobenzene liquid had vaporized in all three treatments. After fumigation, vials with larvae were held at 21° C. overnight before larval mortality was scored. For navel orangeworm eggs, diet was added in each vial and vials were incubated at 25° C. to allow all viable eggs to hatch. After over 10 days, neonate larvae were counted to estimate egg mortality. Pupae were also incubated at 25° C. in an environmental chamber to allow all viable pupae to develop into moths, and moths were then counted to determine pupal mortality. A total of three tests were conducted.

[5] = tested on: rice weevil, Sitophilus oryzae; test: chlorobenzene fumigation in 1.9-liter jars, rice weevil adults; assay type: in vivo; conditions: 21° C.
Method: as §1, with “cookers. […]” for “cookers.”
as §2
(§3) Confused flour beetle and rice weevil adults were collected separately in plastic vials from their prospective colonies. […] Chlorobenzene vapor concentrations were measured during fumigation using detector tubes. After fumigation, insects were kept at room temperature overnight before being scored for mortality. […]

[6] = air=1; cited from earlier work
[7] = tested on: eastern subterranean termite, Reticulitermes flavipes; test: chlorobenzene fumigation in 1.9-liter jars, eastern subterranean termite workers; assay type: in vivo; conditions: 50 μl/l dose, 3 h at 21° C.
Method: as §1
Rice weevil and confused flour beetle were reared on pearled barley and wheat flour diet in jars, respectively. […]
as §2
Workers of eastern subterranean termites were obtained from a commercial source. […] After fumigation, vials with insects were held in an environmental chamber overnight before mortality was scored. […]

[8] = cited from earlier work
confused flour beetle = test: large-scale chlorobenzene fumigation of corn in a 60-liter chamber, confused flour beetle all life stages; assay type: in vivo, Tribolium confusum; conditions: 24 h at 21° C.
Method: (§4) Procedure-Large-scale chlorobenzene fumigations of corn with confused flour beetle and rice weevil were conducted in a 60 L fumigation chamber. The chamber was modified from a 60 L diary pot with an added platform at bottom and a vertically positioned air blower to circulate air in the chamber (FIG. 3). A vial with filter paper was positioned near a port on the wall. A total of 20 kg corn was placed in 9 mesh bags. Confused flour beetle adults and other life stage in flour diet and rice weevil adults and other life stages in pearled barley were sealed in small plastic cages with mesh screens on top and bottom for air movement. One cage with confused four beetle culture medium with all life stages and one cage with all life stages of rice weevil were placed in each mesh bag. The bags were packed in the chamber in two layers. The last two containers with confused flour beetle and rice weevil respectively were placed on top of the corn bags. Ten cages for each species were set up to be fumigated. Five cages for each species were used as controls. The chamber was then placed in a fume hood. After the chamber was sealed, 30 ml chlorobenzene was injected into the vial in the chamber and the air blower was turned on to start a fumigation treatment. The fumigation treatment lasted 24 h at 21° C.
(§5) In each fumigation, chlorobenzene vapor concentrations were measured at 2, 4, 6, 9, 21,and 24 h of each treatment using chlorobenzene detector tubes. For each measurement, a 40 ml air sample from the headspace of the chamber was taken and diluted 50-fold in a 1.9 L glass jar. Then, chlorobenzene detectors with a range of 2-500 ppm were used to measure chlorobenzene concentrations. At the end of each fumigation, the lid of the fumigation chamber was removed, and the air blower was kept running for at least 2 h to ventilate the chamber. The corn bags were then removed and containers with insects were recovered. Insects together with diet from each cage were placed in a plastic vial. All adults were removed from each vial and mortality of adults was scored next day. All vials with diet containing other life stages were incubated at 25° C. in an environmental chamber to allow surviving immature individuals to develop and emerge as adults. The vials were checked weekly to count and remove emerged adults to assess mortality of immature stages until there was no adult emergence for two consecutive weeks. A total of three large-scale fumigation tests have been conducted.

[9] = tested on: confused flour beetle, Tribolium confusum; test: chlorobenzene fumigation in 1.9-liter jars, confused flour beetle adults; assay type: in vivo; conditions: 21° C.
Method: as §1, with “cookers. […]” for “cookers.”
as §2, §3

rice weevil = test: large-scale chlorobenzene fumigation of corn in a 60-liter chamber, rice weevil all life stages; assay type: in vivo, Sitophilus oryzae; conditions: 24 h at 21° C.
Method: as §4, §5

[10] = cited from earlier work; remark: listed apart in the source
[11] = tested on: ham mite, Tyrophagus putrescentiae; test: chlorobenzene fumigation in 1.9-liter jars, ham mites on dog food kibbles; assay type: in vivo; conditions: 21° C., larvae and adults
Method: as §1, with “cookers. […]” for “cookers.”
as §2
Ham mites on infested dog food kibbles were fumigated with chlorobenzene at different doses for 24 and 48 h at 21° C. […] After fumigation, vials with ham mites were held at 21° C. overnight before mortality of larvae and adults was scored. […] Chlorobenzene vapor concentrations were measured during each fumigation. […]

[12] = 100 μl/l dose (800 ppm vapor concentration), 48-h fumigation
[13] = 150 μl/l dose (1800 ppm vapor concentration), 24-h fumigation
[14] = 30 ml chlorobenzene in 60 L chamber with 20 kg corn
[15] = large-scale fumigations of corn, 60 L chamber

## Clc1ccccc1 [chlorobenzene]
[1]
  mortality of spotted wing drosophila flies: 100%
[2]; 50 μl/l dose (about 370 ppm)
  mortality at 370 ppm: 95.3%
[2]; 75 μl/l dose (about 630 ppm)
  mortality at 630 ppm: 100%
[3]
  vapor pressure: 11.7 mmHg
[4]; 50 μl/l dose
  Pupae Mortality (%) Mean ± SE: 7.4 ± 3.8%
  Larvae Mortality (%) Mean ± SE: 20.4 ± 3.6%
[4]; 100 μl/l dose
  Pupae Mortality (%) Mean ± SE: 20.4 ± 5.0%
  Larvae Mortality (%) Mean ± SE: 69.1 ± 4.6%
[4]; 100 μl/l dose, 890 eggs (control 370 neonates of 887)
  Eggs Total neonates: 0
[4]; 200 μl/l dose
  Pupae Mortality (%) Mean ± SE: 43.5%
  Larvae Mortality (%) Mean ± SE: 95.9 ± 1.3%
[4]; 200 μl/l dose, 884 eggs (control 370 neonates of 887)
  Eggs Total neonates: 0
[4]; both doses (100 and 200 μl/l)
  effect on navel orangeworm eggs: All eggs were killed
[5]; [12]
  mortality of rice weevil adults: 100%
[5]; [13]
  mortality of rice weevil adults: 100%
[6]
  vapor density relative to air: 3.9
[7]
  mortality of termite workers: 100%
[8]
  water solubility: 466.3 µg/mL (≈ 4.14 mM)
Confused flour beetle; [14]
  Adults Mortality (%): 100%
Confused flour beetle; 30 ml chlorobenzene in 60 L chamber with 20 kg corn, adults emerged from 30 treatment vials
  Immature stages Survived to adults: 0
Confused flour beetle; 30 ml chlorobenzene in 60 L chamber with 20 kg corn, relative to control by adults emerged
  Immature stages Relative mortality (%): 100%
Confused flour beetle; [15]
  control of adults and immature life stages of confused flour beetle: Complete control
[9]; [12]
  mortality of confused flour beetle adults: 100%
[9]; [13]
  mortality of confused flour beetle adults: 100%
Rice weevil; [14]
  Adults Mortality (%): 100%
Rice weevil; 30 ml chlorobenzene in 60 L chamber with 20 kg corn, adults emerged from 30 treatment vials (1645 from 15 control vials)
  Immature stages Survived to adults: 73
Rice weevil; 30 ml chlorobenzene in 60 L chamber with 20 kg corn, relative to control by adults emerged, assuming equal numbers of vials
  Immature stages Relative mortality (%): 97.8%
Rice weevil; [15]
  control of adults of rice weevil: complete control
[10]; 8-hour workday and 40-hour work week
  OSHA exposure limit: 75 ppm
[10]; EPA category 4
  oral and dermal toxicity: very low
[10]; reported
  carcinogenicity: non-carcinogenic
[11]; 150 μl/l dose (about 1700 ppm), 48-h fumigation
  mortality at 1700 ppm: 99.9%
[11]; 200 μl/l dose (about 2000 ppm), 24-h fumigation
  mortality at 2000 ppm: 100%
